# From ChEMBL document CHEMBL5380806, “Cyclopropenone, Cyclopropeniminium Ion, and Cyclopropenethione as Novel Electrophilic Warheads for Potential Target Discovery of Triple-Negative Breast Cancer” (J Med Chem, 2023)
# Activity calls are given as the source filed them. The calls are words filed in the database; no cut-off is given here.
# Experiments:
# [1] = target: T1, Double-stranded RNA-specific adenosine deaminase (Homo sapiens) (UniProt P55265); assay: Binding affinity to ADAR in human MDA-MB-231 cells at 20 uM incubated for 2 to 5 hrs by pull down based LC-MS analysis; format: cell-based; details: time 2-5 hrs
# T1 sequence (whole entry): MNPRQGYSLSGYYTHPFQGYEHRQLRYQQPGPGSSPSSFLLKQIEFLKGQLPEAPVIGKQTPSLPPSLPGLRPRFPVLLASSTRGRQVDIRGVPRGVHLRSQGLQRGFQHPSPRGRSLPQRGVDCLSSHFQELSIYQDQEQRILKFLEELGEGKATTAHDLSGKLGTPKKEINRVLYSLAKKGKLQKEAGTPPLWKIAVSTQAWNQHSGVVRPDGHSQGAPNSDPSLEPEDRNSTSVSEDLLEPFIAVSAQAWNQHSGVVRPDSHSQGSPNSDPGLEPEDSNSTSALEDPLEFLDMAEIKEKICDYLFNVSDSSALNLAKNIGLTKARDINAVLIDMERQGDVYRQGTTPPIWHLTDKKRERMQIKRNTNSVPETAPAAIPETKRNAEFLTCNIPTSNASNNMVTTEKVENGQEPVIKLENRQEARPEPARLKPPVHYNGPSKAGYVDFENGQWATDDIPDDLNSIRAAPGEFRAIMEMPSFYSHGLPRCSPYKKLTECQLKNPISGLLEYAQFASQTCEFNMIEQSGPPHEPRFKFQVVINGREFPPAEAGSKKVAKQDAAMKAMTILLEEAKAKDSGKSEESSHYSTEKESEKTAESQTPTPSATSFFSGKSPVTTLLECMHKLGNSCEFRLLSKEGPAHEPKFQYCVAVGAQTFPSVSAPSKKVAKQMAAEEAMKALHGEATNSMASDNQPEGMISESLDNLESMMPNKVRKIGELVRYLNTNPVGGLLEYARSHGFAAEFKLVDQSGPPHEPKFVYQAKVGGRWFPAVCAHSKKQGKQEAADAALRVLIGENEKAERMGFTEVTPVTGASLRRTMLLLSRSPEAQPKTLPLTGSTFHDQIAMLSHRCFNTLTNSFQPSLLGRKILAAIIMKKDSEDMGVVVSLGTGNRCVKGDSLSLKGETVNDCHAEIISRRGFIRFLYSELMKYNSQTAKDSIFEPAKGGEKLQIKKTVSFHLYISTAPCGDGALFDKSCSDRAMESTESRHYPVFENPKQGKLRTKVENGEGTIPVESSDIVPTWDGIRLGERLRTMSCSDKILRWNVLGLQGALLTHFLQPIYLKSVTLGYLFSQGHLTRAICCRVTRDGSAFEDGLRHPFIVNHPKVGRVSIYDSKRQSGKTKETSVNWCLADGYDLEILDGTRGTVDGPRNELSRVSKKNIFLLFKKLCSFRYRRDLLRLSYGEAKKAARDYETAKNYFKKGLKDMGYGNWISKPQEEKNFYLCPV
# MDA-MB-231 [2] = assay: Induction of apoptosis in human MDA-MB-231 cells transfected with FABP5 siRNA assessed as necrotic cells at 5 uM incubated for 48 hrs by Annexin V-FITC/PI staining based analysis (reference value: 2.52%); format: functional
# [3] = target: Leucine-rich PPR motif-containing protein, mitochondrial (Homo sapiens) (UniProt P42704); assay: Binding affinity to LRPPRC in human MDA-MB-231 cells at 20 uM incubated for 2 to 5 hrs by pull down based LC-MS analysis; format: cell-based; details: time 2-5 hrs
# [4] = target: Fatty acid-binding protein 5 (Homo sapiens) (UniProt Q01469); assay: Binding affinity to FABP5 in human MDA-MB-231 cells at 20 uM incubated for 2 to 5 hrs by pull down based LC-MS analysis; format: cell-based; details: time 2-5 hrs
# Chain of Fatty acid-binding protein 5 (Homo sapiens) (Q01469 whole entry): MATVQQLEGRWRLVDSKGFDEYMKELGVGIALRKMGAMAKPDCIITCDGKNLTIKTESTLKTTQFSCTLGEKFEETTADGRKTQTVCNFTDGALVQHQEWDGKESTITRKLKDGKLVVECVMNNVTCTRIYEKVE
# [5] = target: Alpha-enolase (Homo sapiens) (UniProt P06733); assay: Binding affinity to recombinant ENO1 (unknown origin) at 10 uM by Western blot analysis
# Chain of Alpha-enolase (Homo sapiens) (P06733 whole entry): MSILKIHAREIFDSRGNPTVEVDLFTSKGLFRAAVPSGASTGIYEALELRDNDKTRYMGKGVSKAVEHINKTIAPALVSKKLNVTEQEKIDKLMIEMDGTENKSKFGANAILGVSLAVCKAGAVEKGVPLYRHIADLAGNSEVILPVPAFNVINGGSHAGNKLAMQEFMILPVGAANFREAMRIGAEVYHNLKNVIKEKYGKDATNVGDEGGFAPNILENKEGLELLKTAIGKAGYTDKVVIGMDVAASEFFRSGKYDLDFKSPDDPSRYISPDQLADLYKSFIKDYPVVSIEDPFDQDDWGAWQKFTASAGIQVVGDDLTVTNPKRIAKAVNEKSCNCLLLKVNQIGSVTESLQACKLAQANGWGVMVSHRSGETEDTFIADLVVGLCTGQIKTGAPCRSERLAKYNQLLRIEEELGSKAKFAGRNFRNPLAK
# MDA-MB-231 [6] = assay: Induction of cell cycle arrest in human MDA-MB-231 cells assessed as accumulation of cells at S phase at 0.156 uM incubated for 24 hrs by PI/RNase staining based flow cytometric analysis relative to control; format: functional
# MDA-MB-231 [7] = assay: Induction of cell cycle arrest in human MDA-MB-231 cells assessed as accumulation of cells at S phase at 0.625 uM incubated for 24 hrs by PI/RNase staining based flow cytometric analysis relative to control; format: functional
# MDA-MB-231 [8] = assay: Induction of apoptosis in human MDA-MB-231 cells transfected with FABP5 siRNA assessed as viable cells at 5 uM incubated for 48 hrs by Annexin V-FITC/PI staining based analysis (reference value: 85.75%); format: functional; details: read-out: Activity
# [9] = system: GTPase KRas (Homo sapiens), P01116 [G12C]; assay: Binding affinity to N-terminal 6his/SUMO-tagged KRAS G12C mutant (unknown origin) expressed in Escherichia coli BL21 (DE3) cells at 10 uM incubated for 2 to 7 hrs by fluorescence based SDS-PAGE analysis; details: time 2-7 hrs
# Chain of GTPase KRas (Homo sapiens), P01116 [G12C] (P01116 whole entry G12C): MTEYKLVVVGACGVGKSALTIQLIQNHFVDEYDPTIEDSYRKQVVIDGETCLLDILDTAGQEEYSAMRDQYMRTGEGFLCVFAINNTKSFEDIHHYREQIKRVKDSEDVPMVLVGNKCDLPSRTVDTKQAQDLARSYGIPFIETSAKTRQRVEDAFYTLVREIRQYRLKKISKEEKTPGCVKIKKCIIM
structure (smiles),measurement,setting,value
C#CCOc1ccc(-c2cc2=O)cc1,Activity,[1],Active
same,Activity,MDA-MB-231 [2],7.42%
same,Activity,[3],Active
same,Activity,[4],Active
same,Activity,[5],Active
same,Activity,MDA-MB-231 [6],13.79%
same,Activity,MDA-MB-231 [7],14.85%
same,viability at 5 µM,MDA-MB-231 [8],28.9%
same,Activity,[9],Active
